Data on 20 compounds can be found in US20090281137A1, “INDOL-2-ONE DERIVATIVES FOR THE TREATMENT OF CENTRAL NERVOUS DISORDERS, GASTROINTESTINAL DISORDERS AND CARDIOVASCULAR DISORDERS” (priority 2004, published 2009).

For one series, the target named is T1, 5-HT1A receptors (Rattus norvegicus, UniProt P19327).
T1 construct: from tissue; host or cells: rat frontal cortex membrane preparation
T1 sequence (P19327 1-422): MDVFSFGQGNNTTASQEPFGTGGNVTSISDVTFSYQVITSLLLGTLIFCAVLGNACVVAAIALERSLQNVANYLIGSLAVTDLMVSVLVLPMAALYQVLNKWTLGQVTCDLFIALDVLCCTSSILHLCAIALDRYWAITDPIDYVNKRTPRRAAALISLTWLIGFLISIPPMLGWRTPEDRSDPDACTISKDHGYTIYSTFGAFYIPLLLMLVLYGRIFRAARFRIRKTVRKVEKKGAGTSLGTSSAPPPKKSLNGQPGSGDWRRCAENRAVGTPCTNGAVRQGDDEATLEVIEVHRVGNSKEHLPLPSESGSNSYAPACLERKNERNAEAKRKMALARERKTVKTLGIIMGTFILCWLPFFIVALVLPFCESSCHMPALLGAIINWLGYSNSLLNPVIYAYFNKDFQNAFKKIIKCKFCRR
As to the kind of experiment: 5-HT1A receptor binding experiment. As to conditions: isolated frontal cortex membrane preparation of rats, tritiated 8-OH-DPAT ligand, 25° C., 30 minutes. The procedure: Binding of the compounds of the general Formula (I) to 5-HT1A receptors was investigated according to the method of Peroutka (S. J. Peroutka: J. Neurochem. 47, p. 529 (1986)).
Receptor bindings were determined from isolated frontal cortex membrane preparation of rats by using tritiated 8-hydroxy-N,N-dipropyl-2-amino-tetraline (8-OH-DPAT) ligand. For the determination of non-specific binding 10 μM serotonin creatinine sulfate was used. The following conditions were applied: incubation […] volume: 250 μl, incubation temperature: 25° C., incubation time: 30 minutes. The reaction was terminated by the addition of 9 ml of 50 mM ice-cold TRIS-HCl buffer (pH=7.7) and quick vacuum filtration using Whatman GFIB fibreglass filtering paper. Radioactivity of the filter boards was measured with the aid of a liquid scintillation spectrometer.
IC50 is the concentration whereby the difference between whole binding and non-specific binding in the presence of 10 μM serotonin creatinine sulfate is 50%. The compounds with an IC50 value smaller than […] were considered effective in this test.

The next series concerns Male Sprague-Dawley rats. As to the kind of experiment: Elevated plus-maze in rats. As to conditions: p.o., 60 min after treatment, 5 min test, increase in time spent in or number of entries into the open arms. Type of series: in vivo. From the text:
The anxiolytic effect of the compounds according to the invention was investigated on rats according to the so-called elevated plus-maze test (S. Pelow, P. Chopin, S. E. File, J. Briley: Neurosci. Methods 14, p. 149 (1985)).
A wooden cross elevated to 50 cm above the floor, 15 cm wide with 100 cm long arms was used for the experiments. The sides and ends of two opposite arms of the cross were equipped with 40 cm high walls, however, the arms were open to the 15 cm×15 cm central area (closed arms). The two other opposite arms were not encircled by walls (open arms).
Male Sprague-Dawley rats weighing 200-220 g were used for the experiments. The animals were placed in the central area of the equipment 60 min after treatment and the following four parameters have been observed for the 5 min test time: […]
time spent in the open arms (sec), time spent in the closed arms (sec), number of entries into the open arms, number of entries into the closed arms.
The effect was expressed as percent increase in either the time spent in the open arms or number of entries into the open arms. MEDs (minimal effective doses) were determined for each compound.

Each structure is given as a SMILES string. pIC50: −log10 of the molar value. Structures can show the parent of a compound that is named as a salt.

Consider `CCC1(CCCCN2CCc3sccc3C2)C(=O)Nc2ccc(C)cc21` (stereo not drawn) [Example 30, 3-[4-(6,7-Dihydro-4H-thieno[3,2-c]pyridin-5-yl)-butyl]-3-ethyl-5-methyl-1,3-dihydro-2H-indol-2-one], for which the melting point (usually the temperature of the solid-liquid transition) lay in the range of 138 to 140 °C.

`CCC1(CCCCN2CC=C(c3cccc(Cl)c3)CC2)C(=O)Nc2ccc(F)cc21` (stereo not drawn) displayed a melting point of 112 to 114 °C.

`CCC1(CCCCN2CC=C(c3ccc(Cl)cc3)CC2)C(=O)Nc2ccc(F)cc21` (stereo not drawn) gave a melting point of 146 to 148 °C.

`CCC1(CCCCN2CCc3sc(Cl)cc3C2)C(=O)Nc2ccccc21` (stereo not drawn) [Example 34, 3-[4-(2-Chloro-6,7-dihydro-4H-thieno[3,2-c]-pyridin-5-yl)-butyl]-3-ethyl-1,3-dihydro-2H-indol-2-one]: the melting point was 117 to 119 °C.

`CCC1(CCCCCN2CCc3sc(Cl)cc3C2)C(=O)Nc2ccccc21` (stereo not drawn) (as salt: hydrochloride) [Example 37, 3-[5-(2-Chloro-6,7-dihydro-4H-thieno[3,2-c]-pyridin-5-yl)-pentyl]-3-ethyl-1,3-dihydro-2H-indol-2-one monohydrochloride] yielded a melting point of 96 to 98 °C.

For `CCC1(CCCCN2CC=C(c3ccc(F)cc3)CC2)C(=O)Nc2ccccc21` (stereo not drawn) (as salt: hydrochloride) [Example 39, 3-Ethyl-3-{4-[4-(4-fluorophenyl)-1,2,3,6-tetrahydropyridin-1-yl]-butyl}-1,3-dihydro-2H-indol-2-one monohydrochloride], the melting point lay within 108 to 111 °C.

As for `CCC1(CCCCN2CCc3sccc3C2)C(=O)Nc2ccc(Cl)cc21` (stereo not drawn) [Example 26, 5-Chloro-3-[4-(6,7-dihydro-4H-thieno[3,2-c]-pyridin-5-yl)-butyl]-3-ethyl-1,3-dihydro-2H-indol-2-one monohydrochloride], the pIC50 (usually the negative decadic logarithm of the IC50, by convention in mol/L) at 5-HT1A receptors was less than 7.00.

With `CCC1(CCCN2CCc3sccc3C2)C(=O)Nc2ccc(Cl)cc21` (stereo not drawn) [Example 24, 5-Chloro-3-[3-(6,7-dihydro-4H-thieno[3,2-c]-pyridin-5-yl)-propyl]-3-ethyl-1,3-dihydro-2H-indol-2-one], the melting point lay within 66 to 69 °C.

In turn, `CC(C)CC1(CCCCN2CCc3sccc3C2)C(=O)Nc2ccccc21` (stereo not drawn) [Example 28, 3-[4-(6,7-Dihydro-4H-thieno[3,2-c]pyridin-5-yl)-butyl]-3-isobutyl-1,3-dihydro-2H-indol-2-one] displayed a melting point of 114 to 116 °C.

As for `CCC1(CCCCN2CCc3sccc3C2)C(=O)Nc2ccccc21` (stereo not drawn) (as salt: hydrochloride) [Example 29, 3-[4-(6,7-Dihydro-4H-thieno[3,2-c]pyridin-5-yl)-butyl]-3-ethyl-1,3-dihydro-2H-indol-2-one monohydrochloride], the melting point lay in the range of 143 to 144 °C.

Turning to `CCC1(CCCCN2CCc3sccc3C2)C(=O)Nc2ccccc21` (stereo not drawn) [Example 29, 3-[4-(6,7-Dihydro-4H-thieno[3,2-c]pyridin-5-yl)-butyl]-3-ethyl-1,3-dihydro-2H-indol-2-one monohydrochloride], the pIC50 on 5-HT1A receptors was less than 7.00.

`CCC1(CCCN2CCc3sccc3C2)C(=O)Nc2ccccc21` (stereo not drawn) [Example 23, 3-[3-(6,7-Dihydro-4H-thieno[3,2-c]pyridin-5-yl)-propyl]-3-ethyl-1,3-dihydro-2H-indol-2-one] gave a melting point of 130 to 132 °C.

The compound `CCC1(CCCCN2CCc3sccc3C2)C(=O)Nc2c(Cl)cc(F)cc21` (stereo not drawn) [Example 33, 7-Chloro-3-[4-(6,7-dihydro-4H-thieno[3,2-c]-pyridin-5-yl)-butyl]-3-ethyl-5-fluoro-1,3-dihydro-2H-indol-2-one] showed a melting point of 194 to 196 °C.

The compound `CCC1(CCCCN2CCc3sccc3C2)C(=O)Nc2ccc(Br)cc21` (stereo not drawn) [Example 27, 5-Bromo-3-[4-(6,7-dihydro-4H-thieno[3,2-c]pyridin-5-yl)-butyl]-3-ethyl-1,3-dihydro-2H-indol-2-one] yielded a melting point of 149 to 151 °C.

In the case of `CCC1(CCCCCN2CCc3sccc3C2)C(=O)Nc2ccccc21` (stereo not drawn) (as salt: oxalate) [Example 36, 3-[5-(6,7-Dihydro-4H-thieno[3,2-c]pyridin-5-yl)-pentyl]-3-ethyl-1,3-dihydro-2H-indol-2-one monooxalate], the melting point is 193 to 195 °C.

Turning to `CCC1(CCCCN2CC=C(c3ccc(F)cc3)CC2)C(=O)Nc2ccccc21` (stereo not drawn) [Example 39, 3-Ethyl-3-{4-[4-(4-fluorophenyl)-1,2,3,6-tetrahydropyridin-1-yl]-butyl}-1,3-dihydro-2H-indol-2-one monohydrochloride], the “MED (minimal effective dose)” value in the series on Male Sprague-Dawley rats came to 0.01 mg/kg p.o.

Compound `CCC1(CCCCN2CCc3sccc3C2)C(=O)Nc2cc(F)c(Cl)cc21` (stereo not drawn) [Example 35, 5-Chloro-3-[4-(6,7-dihydro-4H-thieno[3,2-c]-pyridin-5-yl)-butyl]-3-ethyl-6-fluoro-1,3-dihydro-2H-indol-2-one] gave a melting point of 155 to 157 °C.

On to `CCC1(CCCCCN2CCc3sc(Cl)cc3C2)C(=O)Nc2ccccc21` (stereo not drawn) [Example 37, 3-[5-(2-Chloro-6,7-dihydro-4H-thieno[3,2-c]-pyridin-5-yl)-pentyl]-3-ethyl-1,3-dihydro-2H-indol-2-one monohydrochloride], for which, on 5-HT1A receptors, the pIC50 was less than 7.00.

`CCC1(CCCCCN2CCc3sccc3C2)C(=O)Nc2ccccc21` (stereo not drawn) [Example 36, 3-[5-(6,7-Dihydro-4H-thieno[3,2-c]pyridin-5-yl)-pentyl]-3-ethyl-1,3-dihydro-2H-indol-2-one monooxalate] gave a pIC50 at 5-HT1A receptors of less than 7.00. Further, in the series on Male Sprague-Dawley rats, the “MED (minimal effective dose)” value is listed as “≦1.0 mg/kg p.o”.

Take `CCC1(CCCCN2CC=C(c3ccc(Cl)cc3)CC2)C(=O)Nc2ccccc21` (stereo not drawn): the melting point lay within 142 to 145 °C.
